Reference: PubChem BioAssay (NCI)
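1) Cells in 96-well plates. 2) Compound, 48 h, 5 concentrations. 3) Linear interpolation between surrounding doses. 4) Unreached endpoint = highest concentration. The concentration for full growth arrest is given as TGI.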

Experiments:
Assay in all cases: NCI tumour cell line growth inhibition, 48 h
SF-295 CNS = system: SF-295 CNS
ACHN renal = system: ACHN renal
SN12C renal = system: SN12C renal
SNB-75 CNS = system: SNB-75 CNS
CCRF-CEM leukemia = system: CCRF-CEM leukemia
UO-31 renal = system: UO-31 renal
CAKI-1 renal = system: CAKI-1 renal
UACC-257 melanoma = system: UACC-257 melanoma
RPMI-8226 leukemia = system: RPMI-8226 leukemia
SK-OV-3 ovarian = system: SK-OV-3 ovarian
SK-MEL-28 melanoma = system: SK-MEL-28 melanoma
MOLT-4 leukemia = system: MOLT-4 leukemia
COLO 205 colon = system: COLO 205 colon
MALME-3M melanoma = system: MALME-3M melanoma
A549 NSCLC = system: A549 NSCLC
U251 CNS = system: U251 CNS
EKVX NSCLC = system: EKVX NSCLC
LXFL 529 NSCLC = system: LXFL 529 NSCLC
DLD-1 colon = system: DLD-1 colon
KM12 colon = system: KM12 colon
UACC-62 melanoma = system: UACC-62 melanoma
DMS 114 small cell lung = system: DMS 114 small cell lung
NCI-H226 lung = system: NCI-H226 lung
XF 498 CNS = system: XF 498 CNS
SNB-19 CNS = system: SNB-19 CNS
SW-620 colon = system: SW-620 colon
NCI-H460 lung = system: NCI-H460 lung
HOP-62 NSCLC = system: HOP-62 NSCLC
RXF-631 renal = system: RXF-631 renal
SR leukemia = system: SR leukemia
OVCAR-3 ovarian = system: OVCAR-3 ovarian
HCC-2998 colon = system: HCC-2998 colon
SNB-78 CNS = system: SNB-78 CNS
HL-60(TB) leukemia = system: HL-60(TB) leukemia
SK-MEL-5 melanoma = system: SK-MEL-5 melanoma
HCT-116 colon = system: HCT-116 colon
HOP-92 NSCLC = system: HOP-92 NSCLC
HOP-18 NSCLC = system: HOP-18 NSCLC
786-0 renal = system: 786-0 renal
IGROV1 ovarian = system: IGROV1 ovarian
A498 renal = system: A498 renal
TK-10 renal = system: TK-10 renal
SF-539 CNS = system: SF-539 CNS
SF-268 CNS = system: SF-268 CNS
HT29 colon = system: HT29 colon
OVCAR-4 ovarian = system: OVCAR-4 ovarian
OVCAR-8 ovarian = system: OVCAR-8 ovarian
HCT-15 colon = system: HCT-15 colon
K-562 leukemia = system: K-562 leukemia
M14 melanoma = system: M14 melanoma
M19-MEL melanoma = system: M19-MEL melanoma
NCI-H23 lung = system: NCI-H23 lung
OVCAR-5 ovarian = system: OVCAR-5 ovarian
LOX IMVI melanoma = system: LOX IMVI melanoma
KM20L2 colon = system: KM20L2 colon
NCI-H522 lung = system: NCI-H522 lung
DMS 273 small cell lung = system: DMS 273 small cell lung
RXF 393 renal = system: RXF 393 renal
SK-MEL-2 melanoma = system: SK-MEL-2 melanoma

Measured: TGI

COC(=O)C(CC(=O)c1ccccc1)c1ccccc1NC(C)=O (configuration not stated)
> 100 µM: SF-295 CNS | ACHN renal | SN12C renal | SNB-75 CNS | CCRF-CEM leukemia | UO-31 renal | CAKI-1 renal | UACC-257 melanoma | RPMI-8226 leukemia | SK-OV-3 ovarian | SK-MEL-28 melanoma | MOLT-4 leukemia | COLO 205 colon | MALME-3M melanoma | A549 NSCLC | U251 CNS | EKVX NSCLC | LXFL 529 NSCLC | DLD-1 colon | KM12 colon | UACC-62 melanoma | DMS 114 small cell lung | NCI-H226 lung | XF 498 CNS | SNB-19 CNS | SW-620 colon | NCI-H460 lung | HOP-62 NSCLC | RXF-631 renal | SR leukemia | OVCAR-3 ovarian | HCC-2998 colon | SNB-78 CNS | HL-60(TB) leukemia | SK-MEL-5 melanoma | HCT-116 colon | HOP-92 NSCLC | HOP-18 NSCLC | 786-0 renal | IGROV1 ovarian | A498 renal | TK-10 renal | SF-539 CNS | SF-268 CNS | HT29 colon | OVCAR-4 ovarian | OVCAR-8 ovarian | HCT-15 colon | K-562 leukemia | M14 melanoma | M19-MEL melanoma | NCI-H23 lung | OVCAR-5 ovarian | LOX IMVI melanoma | KM20L2 colon | NCI-H522 lung

COC(=O)c1cc(-c2ccc(OC)c(OC)c2)oc1-c1ccc(OC)c(OC)c1
93.6 µM: SN12C renal
59.5 µM: A498 renal
96.2 µM: SF-539 CNS
> 100 µM: SF-295 CNS | DMS 273 small cell lung | ACHN renal | SNB-75 CNS | CCRF-CEM leukemia | UO-31 renal | CAKI-1 renal | UACC-257 melanoma | RPMI-8226 leukemia | SK-OV-3 ovarian | SK-MEL-28 melanoma | MOLT-4 leukemia | MALME-3M melanoma | A549 NSCLC | U251 CNS | EKVX NSCLC | LXFL 529 NSCLC | DLD-1 colon | KM12 colon | UACC-62 melanoma | NCI-H226 lung | XF 498 CNS | SW-620 colon | NCI-H460 lung | HOP-62 NSCLC | RXF-631 renal | SR leukemia | OVCAR-3 ovarian | HCC-2998 colon | SNB-78 CNS | HL-60(TB) leukemia | HCT-116 colon | HOP-18 NSCLC | 786-0 renal | IGROV1 ovarian | TK-10 renal | SF-268 CNS | HT29 colon | OVCAR-4 ovarian | OVCAR-8 ovarian | HCT-15 colon | K-562 leukemia | M14 melanoma | SK-MEL-2 melanoma | M19-MEL melanoma | NCI-H23 lung | OVCAR-5 ovarian | LOX IMVI melanoma | KM20L2 colon
95.5 µM: DMS 114 small cell lung
71.4 µM: HOP-92 NSCLC
39.4 µM: COLO 205 colon
72.7 µM: RXF 393 renal
